Laboratory results taken from a compilation of properties of binary mixtures (doi:10.1016/j.molliq.2012.10.026).

Assay: xn = mol fraction of the nth substance listed
Conditions: 101 kPa, x1 = 0.5

O=C1CCCCCN1 + CCCC[N+](CCCC)(CCCC)CCCC.[Cl-]
Conditions | electrical conductivity [S/m]
293.15 K | 0.0409
295.65 K | 0.0459
298.15 K | 0.0554
300.65 K | 0.0726
303.15 K | 0.0934
305.65 K | 0.116
308.15 K | 0.142
310.65 K | 0.172
318.15 K | 0.31
320.65 K | 0.368
323.15 K | 0.431
325.65 K | 0.49
330.65 K | 0.61
333.15 K | 0.707
